One experiment deals with B16. Briefly: Concentration which produces 50% inhibition of proliferation of B16 melanoma cells after 40 hr incubation expressed as ED50 ratio relative to taxol. Type of experiment: functional, Mus musculus.
Experiment [1] deals with Tubulin alpha chain (Sus scrofa) (UniProt P02550). Briefly: Concentration which causes polymerization of 50% of the tubulin present in 15 min at 37 degree Celsius (stimulation of microtubule assembly) expressed as ED50 ratio relative to taxol. Type of experiment: functional.
Sequence of Tubulin alpha chain (Sus scrofa) (P02550 whole entry, looked up): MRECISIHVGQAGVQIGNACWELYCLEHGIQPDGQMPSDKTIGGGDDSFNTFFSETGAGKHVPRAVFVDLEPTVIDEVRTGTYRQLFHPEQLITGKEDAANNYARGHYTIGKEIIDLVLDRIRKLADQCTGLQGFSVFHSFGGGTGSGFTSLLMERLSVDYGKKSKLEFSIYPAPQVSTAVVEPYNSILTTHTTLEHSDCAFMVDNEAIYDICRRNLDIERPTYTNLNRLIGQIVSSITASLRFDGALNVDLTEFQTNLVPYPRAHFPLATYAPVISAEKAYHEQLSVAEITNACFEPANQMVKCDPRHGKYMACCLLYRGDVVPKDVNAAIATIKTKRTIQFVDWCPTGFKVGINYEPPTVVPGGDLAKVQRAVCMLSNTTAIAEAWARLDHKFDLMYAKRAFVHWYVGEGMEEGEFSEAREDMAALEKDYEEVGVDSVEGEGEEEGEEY

For `CC(=O)O[C@H]1C(=O)[C@@]2(C)[C@H]([C@H](OC(=O)c3ccccc3)[C@]3(O)C[C@H](OC(=O)[C@H](O)[C@@H](NC(=O)c4c(F)c(F)c(N=[N+]=[N-])c(F)c4F)c4ccccc4)C(C)=C1C3(C)C)[C@]1(OC(C)=O)CO[C@@H]1C[C@@H]2O`, the ED50 ratio stood at 14.8 with B16 and 4.6 in experiment [1].
As to `CC(=O)O[C@H]1C(=O)[C@]2(C)[C@@H](OC(=O)c3c(F)c(F)c(N=[N+]=[N-])c(F)c3F)C[C@H]3OC[C@@]3(OC(C)=O)[C@H]2[C@H](OC(=O)c2ccccc2)[C@]2(O)C[C@H](OC(=O)[C@H](O)[C@@H](NC(=O)c3ccccc3)c3ccccc3)C(C)=C1C2(C)C`, the ED50 ratio in experiment [1] is > 22.4.
As for `CC(=O)O[C@H]1C(=O)[C@]2(C)[C@@H](OC(=O)c3ccc(N=[N+]=[N-])cc3)C[C@H]3OC[C@@]3(OC(C)=O)[C@H]2[C@H](OC(=O)c2ccccc2)[C@]2(O)C[C@H](OC(=O)[C@H](O)[C@@H](NC(=O)c3ccccc3)c3ccccc3)C(C)=C1C2(C)C`, the figures for the ED50 ratio (in the experiment on B16; in experiment [1]) were 30 and 21.4, respectively.
Regarding `CC(=O)O[C@H]1C(=O)[C@@]2(C)[C@H]([C@H](OC(=O)c3ccccc3)[C@]3(O)C[C@H](OC(=O)[C@H](O)[C@@H](NC(=O)c4ccc(N=[N+]=[N-])cc4)c4ccccc4)C(C)=C1C3(C)C)[C@]1(OC(C)=O)CO[C@@H]1C[C@@H]2O`, the results for the ED50 ratio (with B16; in experiment [1]) were 4.6 and 2, respectively.

Values taken from ChEMBL document CHEMBL1127241, “Taxol photoaffinity labels 2. Synthesis and biological evaluation of N-(4-azidobenzoyl)-N-debenzoyltaxol, N-(4-azido-2,3,5,6-tetrafluorobenzoyl)-N-debenzoyltaxol, and 7-(4-azido-2,3,5,6-tetrafluorobenzoyl)taxol” (1994).
